Laboratory results published in patent publication US10392368B2, “Pyrazolo and triazolo bicyclic compounds as JAK kinase inhibitors” (THERAVANCE BIOPHARMA R&D IP, LLC, priority 2017, dated 2019).

What was measured:
[1] = biological target: T1, JAK1 (Homo sapiens, UniProt P23458); test: Biochemical JAK1 kinase assay (LanthaScreen)
T1 construct: GST; purchased Life Technologies
How it was run: (§1)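 TR-FRET readout (520/495 nm) using Tb-labelled pTyr701 antibody after EDTA stop, following 1 h ATP-started phosphorylation of GFP-STAT1 by recombinant GST-JAK. Compounds preincubated 1 h with enzyme and substrate; pIC50 from 4-parameter fit, Cheng-Prusoff gives pKi.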

[2] = biological target: T2, JAK3 (Homo sapiens, UniProt P52333); test: Biochemical JAK3 kinase assay (LanthaScreen); set-up: GST; purchased Life Technologies; conditions: for JAK3 (pKi)-JAK1 (pKi): selectivity JAK3 over JAK1, difference of pKi
T2 sequence (P52333 1-1124): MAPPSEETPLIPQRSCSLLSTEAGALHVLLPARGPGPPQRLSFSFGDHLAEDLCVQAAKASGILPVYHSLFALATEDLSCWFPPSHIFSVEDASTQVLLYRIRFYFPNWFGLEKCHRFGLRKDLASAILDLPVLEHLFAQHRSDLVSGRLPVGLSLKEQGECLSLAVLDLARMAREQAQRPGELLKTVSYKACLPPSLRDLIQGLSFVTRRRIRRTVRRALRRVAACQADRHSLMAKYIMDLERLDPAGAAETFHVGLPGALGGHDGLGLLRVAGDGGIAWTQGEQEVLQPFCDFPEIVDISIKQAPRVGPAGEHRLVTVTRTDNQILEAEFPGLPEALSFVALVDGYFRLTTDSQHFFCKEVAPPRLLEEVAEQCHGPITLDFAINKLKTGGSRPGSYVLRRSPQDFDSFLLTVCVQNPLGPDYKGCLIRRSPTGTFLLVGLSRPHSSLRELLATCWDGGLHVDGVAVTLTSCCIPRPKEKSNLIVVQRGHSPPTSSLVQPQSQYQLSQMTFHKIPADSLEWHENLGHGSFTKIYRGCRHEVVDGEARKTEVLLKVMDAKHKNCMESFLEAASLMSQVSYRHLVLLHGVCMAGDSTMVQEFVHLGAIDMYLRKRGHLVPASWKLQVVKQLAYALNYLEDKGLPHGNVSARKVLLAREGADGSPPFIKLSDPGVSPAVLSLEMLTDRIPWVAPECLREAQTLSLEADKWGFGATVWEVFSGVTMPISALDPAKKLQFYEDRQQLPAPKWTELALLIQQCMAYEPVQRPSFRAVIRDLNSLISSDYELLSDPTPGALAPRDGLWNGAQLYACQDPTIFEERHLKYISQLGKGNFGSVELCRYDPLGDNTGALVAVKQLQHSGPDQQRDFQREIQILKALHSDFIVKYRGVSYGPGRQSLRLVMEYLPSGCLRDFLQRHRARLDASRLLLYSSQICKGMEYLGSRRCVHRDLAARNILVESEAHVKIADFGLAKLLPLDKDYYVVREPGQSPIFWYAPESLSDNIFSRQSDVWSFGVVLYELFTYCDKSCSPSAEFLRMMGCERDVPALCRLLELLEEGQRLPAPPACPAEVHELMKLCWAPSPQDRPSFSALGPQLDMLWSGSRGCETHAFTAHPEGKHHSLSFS
How it was run: as §1

[3] = test system: IL-2 stimulated pSTAT5 in Tall-1 T cells; test: Cellular JAK3 potency assay: inhibition of IL-2 stimulated pSTAT5 in Tall-1 T cells; type: cell-based, human; conditions: IL-2 stimulated pSTAT5, Tall-1 T cells
How it was run: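 Inhibition of IL-2-induced pSTAT5 was quantified by AlphaLisa in Tall-1 cell lysates. Compound exposure lasted 1 h before 30 min stimulation with 300 ng/ml IL-2 final.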

T1 sequence (P23458 whole entry): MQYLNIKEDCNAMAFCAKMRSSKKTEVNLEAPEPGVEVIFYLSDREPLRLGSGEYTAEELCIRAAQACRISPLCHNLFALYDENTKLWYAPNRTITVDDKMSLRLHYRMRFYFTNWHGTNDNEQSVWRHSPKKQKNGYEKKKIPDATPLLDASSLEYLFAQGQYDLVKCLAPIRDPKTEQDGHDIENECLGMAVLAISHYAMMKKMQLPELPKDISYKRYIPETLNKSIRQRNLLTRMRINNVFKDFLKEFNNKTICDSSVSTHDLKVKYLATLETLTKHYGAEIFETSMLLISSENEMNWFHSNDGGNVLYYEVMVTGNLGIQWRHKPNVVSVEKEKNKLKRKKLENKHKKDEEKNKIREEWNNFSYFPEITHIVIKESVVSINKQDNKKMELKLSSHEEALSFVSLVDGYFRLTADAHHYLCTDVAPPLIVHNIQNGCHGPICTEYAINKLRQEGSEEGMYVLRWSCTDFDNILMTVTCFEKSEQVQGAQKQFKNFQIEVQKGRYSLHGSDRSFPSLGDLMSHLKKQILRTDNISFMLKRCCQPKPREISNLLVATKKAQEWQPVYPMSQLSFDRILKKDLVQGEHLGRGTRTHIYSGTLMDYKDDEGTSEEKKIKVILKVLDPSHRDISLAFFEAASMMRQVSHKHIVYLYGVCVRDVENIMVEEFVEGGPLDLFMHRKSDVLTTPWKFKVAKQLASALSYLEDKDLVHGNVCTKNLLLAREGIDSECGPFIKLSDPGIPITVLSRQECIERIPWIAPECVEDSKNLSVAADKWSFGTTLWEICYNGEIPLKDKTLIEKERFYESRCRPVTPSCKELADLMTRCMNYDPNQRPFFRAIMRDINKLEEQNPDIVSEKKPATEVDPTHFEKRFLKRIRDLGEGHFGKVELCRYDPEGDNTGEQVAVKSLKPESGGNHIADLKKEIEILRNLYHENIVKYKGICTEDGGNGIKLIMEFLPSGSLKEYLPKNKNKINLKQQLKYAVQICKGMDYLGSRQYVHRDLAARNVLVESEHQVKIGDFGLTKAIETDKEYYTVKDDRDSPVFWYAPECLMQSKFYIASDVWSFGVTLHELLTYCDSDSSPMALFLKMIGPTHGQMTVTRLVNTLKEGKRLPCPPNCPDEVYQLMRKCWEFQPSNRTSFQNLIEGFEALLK

| Compound | JAK 1 (pKi) [1] | JAK 3 (pKi) [2] | JAK3 (pKi)-JAK1 (pKi) [2] | Tall-1 (pIC50) [3] |
| --- | --- | --- | --- | --- |
| CN(C)CC=CC(=O)N1C2CCC1CC(Oc1cc(-c3ccc(O)c(F)c3)cc3[nH]ncc13)C2 (stereo not drawn) [Compound 9-5] | D (a pKi value between 7 and 8 (Ki between 100 nM and 10 nM)) | B (a pKi value between 9 and 10 (Ki between 1 nM and 0.1 nM)) | C (a value of 1.8 to 2.3) | C (a pIC50 value between 6 and 6.7 (IC50 between 1 μM and 200 nM)) |
| C=CC(=O)N1C2CCC1CC(Oc1nc(-c3ccc(O)cc3)cc3[nH]ncc13)C2 (stereo not drawn) [Compound 9-6] | E (a pKi value of 7 or below (Ki of 100 nM or above)) | B (a pKi value between 9 and 10 (Ki between 1 nM and 0.1 nM)) | A (a value of 3 or above) | A (a pIC50 value≥7.5 (IC50≤32 nM)) |
| C=CC(=O)N1C2CCC1CC(Oc1nc(-c3ccc(O)c(Cl)c3)cc3[nH]ncc13)C2 (stereo not drawn) [Compound 9-7] | E (a pKi value of 7 or below (Ki of 100 nM or above)) | A (a pKi value≥10 (Ki≤0.1 nM)) | A (a value of 3 or above) | B (a pIC50 value between 6.7 (included) and 7.5 (IC50 between 200 nM and 32 nM)) |
| CN(C)CC=CC(=O)N1C2CCC1CC(Oc1nc(-c3ccc(O)c(Cl)c3)cc3[nH]ncc13)C2 (stereo not drawn) [Compound 9-8] | D (a pKi value between 7 and 8 (Ki between 100 nM and 10 nM)) | B (a pKi value between 9 and 10 (Ki between 1 nM and 0.1 nM)) | C (a value of 1.8 to 2.3) | C (a pIC50 value between 6 and 6.7 (IC50 between 1 μM and 200 nM)) |
| C=CC(=O)N1C2CCC1CC(Oc1nc(-c3ccc(O)c(F)c3)cc3[nH]ncc13)C2 (stereo not drawn) [Compound 9-10] | E (a pKi value of 7 or below (Ki of 100 nM or above)) | B (a pKi value between 9 and 10 (Ki between 1 nM and 0.1 nM)) | A (a value of 3 or above) | A (a pIC50 value≥7.5 (IC50≤32 nM)) |
| C=CC(=O)N1C2CCC1CC(Oc1nc(-c3ccc(O)cc3)nc3[nH]ncc13)C2 (stereo not drawn) [Compound 9-11] | E (a pKi value of 7 or below (Ki of 100 nM or above)) | A (a pKi value≥10 (Ki≤0.1 nM)) | A (a value of 3 or above) | B (a pIC50 value between 6.7 (included) and 7.5 (IC50 between 200 nM and 32 nM)) |
| CN(C)CC=CC(=O)N1C2CCC1CC(Oc1cc(-c3ccc(O)cc3)cc3[nH]ncc13)C2 (stereo not drawn) [Compound 10-1] | D (a pKi value between 7 and 8 (Ki between 100 nM and 10 nM)) | A (a pKi value≥10 (Ki≤0.1 nM)) | B (a value of 2.3 to 3) | B (a pIC50 value between 6.7 (included) and 7.5 (IC50 between 200 nM and 32 nM)) |
| CN(C)CC=CC(=O)N1C2CCC1CC(Oc1cc(-c3ccc(O)c(Cl)c3)cc3[nH]ncc13)C2 (stereo not drawn) [Compound 10-3] | D (a pKi value between 7 and 8 (Ki between 100 nM and 10 nM)) | B (a pKi value between 9 and 10 (Ki between 1 nM and 0.1 nM)) | B (a value of 2.3 to 3) | B (a pIC50 value between 6.7 (included) and 7.5 (IC50 between 200 nM and 32 nM)) |
| CN(C)CC=CC(=O)N1C2CCC1CC(Oc1cc(-c3ccc(O)c(F)c3)cc3[nH]ncc13)C2 (stereo not drawn) [Compound 10-5] | D (a pKi value between 7 and 8 (Ki between 100 nM and 10 nM)) | B (a pKi value between 9 and 10 (Ki between 1 nM and 0.1 nM)) | C (a value of 1.8 to 2.3) | B (a pIC50 value between 6.7 (included) and 7.5 (IC50 between 200 nM and 32 nM)) |
| C=CC(=O)N1C2CCC1CC(Oc1cc(-c3ccc(O)c(F)c3)cc3[nH]ncc13)C2 (stereo not drawn) [Compound 10-6] | D (a pKi value between 7 and 8 (Ki between 100 nM and 10 nM)) | B (a pKi value between 9 and 10 (Ki between 1 nM and 0.1 nM)) | B (a value of 2.3 to 3) | A (a pIC50 value≥7.5 (IC50≤32 nM)) |
| C=CC(=O)N1CCO[C@H](C(=O)Nc2cc(-c3ccc(O)cc3)cc3[nH]ncc23)C1 [Compound 11-1] | E (a pKi value of 7 or below (Ki of 100 nM or above)) | B (a pKi value between 9 and 10 (Ki between 1 nM and 0.1 nM)) | A (a value of 3 or above) | A (a pIC50 value≥7.5 (IC50≤32 nM)) |
| CN(C)C/C=C/C(=O)N1CCO[C@H](C(=O)Nc2cc(-c3ccc(O)cc3)cc3[nH]ncc23)C1 [Compound 11-2] | E (a pKi value of 7 or below (Ki of 100 nM or above)) | B (a pKi value between 9 and 10 (Ki between 1 nM and 0.1 nM)) | A (a value of 3 or above) | C (a pIC50 value between 6 and 6.7 (IC50 between 1 μM and 200 nM)) |
